Values belong to the compound of their own block, whether it stands above or below them.
Experiments:
[1] = Ellipsometry measurement of solution refractive index and molar n′ change β; format: physicochemical
Procedure: A Horiba UVISEL ellipsometer was used to measure the real and imaginary parts of the refractive index of solutions at different concentrations of specific dye molecules. For solution measurement, 5 mL of solution was added to a shallow glass petri-dish (35×10 mm, Corning Falcon). The solution covers the entire bottom of the petri-dish creating a flat, reflective air-liquid interface. The reflected light was measured at an angle of 69.85° and the refractive index of the solution was calculated using a single interface semi-infinite reflection model. For all the measurements, 0.2 s integration time was used for each wavelength.
Measurements of the Molar n′ Change, β
The molar n′ change, β, is defined and measured according to the following quantitative relationship between the n′ and c (i.e., the concentration) of an aqueous solution containing dissolved clearing agents:
[formula] • where nw′ is the real RI of pure water, c is the molar concentration (M) of the clearing agent, and β is its molar n′ change. Note that n′, nw′, and β all have wavelength dependence. According to eq. (6), by measuring the n′(λ) of the solutions with ellipsometry, one can obtain β(λ) by fitting n′(λ) with c to a linear relationship.

[2] = Imaging of 1951 USAF resolution target through 1-mm scattering phantoms; conditions: optimum K-Klear conditions
Procedure: To this end, the resolvable spatial frequencies of a 1951 US Air Force (USAF) resolution target were quantified when imaging it through 1-mm scattering phantoms with different Dye-4 concentrations (FIGS. 5A-5B; FIGS. 14A-15E; see Example 7 for preparation of the phantom). The scattering phantom is placed between the objective lens and the USAF target, which is back illuminated with a white lamp (FIG. 16).
The hydrogel-silica scatter phantom in FIGS. 5A-5M was prepared by mixing the silica nanoparticle suspension (1 μm, 10 mg mL^−1) with low melting temperature agarose and Dye-4 of different amounts. The final concentration of agarose was 6 mg mL^−1. […] The mixture was then heated in an oven at 70° C. for at least 10 min to facilitate the dissolution of agarose. A 400-μL suspension was pipetted and injected into the well of a 1-mm silicone isolator (Grace bio-labs, Bend, Oregon, USA) mounted on a coverslip (24×40×0.15 mm, Fisher Scientific). The top of the solution was then sealed by another coverslip (22×22×0.15 mm, Thermo Scientific, Waltham, Massachusetts, USA) and the phantom was left at room temperature for slow solidification. […]

chicken breast tissue [3] = test: Ex vivo K-Klear of chicken breast tissue, transmittance and attenuation coefficient; conditions: immersion in 0.62 M solution, beyond 600 nm
Description: To gradually increase the n′ of the aqueous components in chicken breast, the tissue slices were sequentially immersed in solutions containing an increasing concentration of Dye-4 (FIG. 6A; see Example 7).
To verify this point, the Dye-4 concentration was varied in the last immersion step and measure T before and after dye immersion (FIGS. 6C and 18).
For transmission measurements of chicken breast tissue, the tissue sample was first mounted on a microscope slide (precleaned, 12-550-15, Fisher Scientific), which was placed in the light path of the UV-Vis spectrometer to ensure that the entire incident beam is blocked by the tissue. For time-dependent transmission measurement, the tissue was cut to fit into a 1 cm optical path plastic cuvette (acrylic, 14-955-126, Fisher Scientific) while having sufficient area to completely block the incident light. 3 mL of Dye-4 solution was then slowly added to fully immerse the chicken breast tissue, before the cuvette was sealed by parafilm (Bemis Company, Inc., Neenah, Wisconsin, USA) to minimize water evaporation. […]
The thickness of the tissue was measured by sandwiching the tissue between two coverslips (22×22×0.15 mm, Thermal Scientific) using a digital caliper (Mitutoyo). The transmission spectra of the tissue were measured by attaching the chicken breast tissue on a microscope slide (precleaned, Fisher Scientific). […]

mouse scalp = test: In vivo optical clearing of mouse scalp by topical gel, laser speckle imaging of cerebral vessels; design: species or system mice; conditions: gel containing 0.62 M dye, 785 nm
Description: Given the successful clearing of scattering phantoms and chicken breasts using this approach, the possibility to achieve clearing in live animals was next explored. Procedures were developed to circumvent the destructive procedures or the use of toxic chemicals commonly used in ex vivo tissue clearing methods. […] It was hypothesized that owing to the small molecular weight and sufficiently large diffusion coefficient of Dye-4 in tissue, it can be delivered topically to optically clear the skin, thus exposing underlying structures that are otherwise obscured by the skin (FIG. 7A). […] The opacity of the scalp always requires its removal for fluorescence imaging of neuron activity or laser speckle imaging of cerebral hemodynamics in the mouse brain. […]
(§1) Before each imaging experiment, the mice were weighed and anesthetized via intraperitoneal (i.p.) injection of a mixture of 16 mg/kg ketamine (Dechra Veterinary Products) and 0.2 mg/kg dexdomitor (Dexmedesed; Dechra Veterinary Products) by insulin syringes with a 30 G needle gauge. […] The hair over the mouse head was removed for the in-vivo fluorescence imaging at the mice head. The hair over the mouse hindlimbs was removed for in-vivo reflectance and fluorescence imaging at the hind limbs. […]

mouse hindlimb skin = test: In vivo optical clearing of mouse hindlimb skin by topical gel, SHG sarcomere imaging; design: species or system mice; conditions: gel containing 0.62 M dye topically
Description: Sarcomeres, basic contractile units of skeletal and cardiac muscles, were chosen as the targets for imaging owing to their central roles in muscle functions and implications in neuromuscular diseases (e.g., spinal muscular atrophy). Existing in vivo sarcomere imaging methods require the invasive implantation of microendoscopes inside the muscle tissue for imaging the second-harmonic generation (SHG) signals from myosin rods in the sarcomere. It was hypothesized that the need for an invasively implanted microendoscope can be alleviated by applying the K-Klear method to reduce the scattering in the skin. […] This average periodicity value between SHG-generating myosin rods agrees with the reported sarcomere lengths measured via an implanted microendoscope, thus confirming the ability of K-Klear to resolve microscopic features through cleared tissue. […]
as §1

chicken breast tissue [4] = test: Temporal evolution of transmittance during immersion, diffusion in chicken breast tissue
Description: (FIG. 19A) Temporal evolution of transmittance T at different wavelengths of a chicken breast tissue immersed in a 0.62 M solution of Dye-4. (FIG. 19B) Temporal evolution of normalized T at different wavelengths. T is normalized between 0 and 1 against minimum and maximum T for each wavelength. (FIG. 19C) Temporal evolution of normalized T averaged over measurements at all wavelengths in FIG. 19B, enabling the extraction of the diffusion constant by fitting the normalized T to
This tissue sample has a thickness of d=1.82 mm; therefore, the diffusion coefficient D of Dye-4 therein can be calculated as
For this reason, estimates of the diffusion rate of Dye-4 molecules can be made in chicken breast by tracking the temporal evolution of T during dye immersion (FIGS. 6F and 19A-19C). […] Using a dilute solution to achieve the same Δn′ and clearing effect benefits from a low viscosity of the clearing agent, thus promoting its diffusion kinetics.
For transmission measurements of chicken breast tissue, the tissue sample was first mounted on a microscope slide (precleaned, 12-550-15, Fisher Scientific), which was placed in the light path of the UV-Vis spectrometer to ensure that the entire incident beam is blocked by the tissue. For time-dependent transmission measurement, the tissue was cut to fit into a 1 cm optical path plastic cuvette (acrylic, 14-955-126, Fisher Scientific) while having sufficient area to completely block the incident light. 3 mL of Dye-4 solution was then slowly added to fully immerse the chicken breast tissue, before the cuvette was sealed by parafilm (Bemis Company, Inc., Neenah, Wisconsin, USA) to minimize water evaporation. The temperature of the cuvette was controlled between 25 and 30° C. during measurements.
The thickness of the tissue was measured by sandwiching the tissue between two coverslips (22×22×0.15 mm, Thermal Scientific) using a digital caliper (Mitutoyo). The transmission spectra of the tissue were measured by attaching the chicken breast tissue on a microscope slide (precleaned, Fisher Scientific).

[5] = EFSA conclusion; cited from earlier work
[6] = UV-Vis absorption of dye solutions in water (molar absorption α, extinction coefficient); format: physicochemical; conditions: for absorption at wavelengths above 600 nm: aqueous solutions, b66: 1 mM to 1.0 M
Description: A Thermo Fisher Scientific Evolution 350 UV-Vis spectrophotometer was used to measure the transmission and absorption spectra of dye solutions, silica phantoms, and ex-vivo chicken breast tissues. For all the measurements, 0.2 s acquisition time was used for each wavelength.
For transmission measurements of dye solutions, 1 mm optical path quartz cuvettes (high precision, two polished sides, Orient Analytics) were used and the cells were washed with aqua regia (mixture of 36.5-38.0 w/w % HCl and 68.0-70.0 w/w % HNO3 with a volume ratio of 3:1), fully rinsed with water and dried before use. A reference spectrum was acquired with water alone, thus correcting any loss of light due to intrinsic water absorption and reflection at the air-quartz interfaces.

[7] = Screening of absorbing molecules for K-Klear by α, β and β/α spectra; format: physicochemical
Description: (FIG. 3A) The relation between average molar absorption a and average molar n′ change β in the wavelength range between 500 to 700 nm for different molecules. (FIG. 3B) The ratio between the molar n′ change and molar absorption (β/α) for different absorbing molecules. The “white window” indicates a potential clearing spectrum with sufficient Δn′ and minimal absorption. (FIGS. 3C-3D) Imaginary part n″ (FIG. 3C) and real part n′ (FIG. 3D) of the RI of Dye-4 solutions at different concentrations measured from ellipsometry.
In practice, the agent should display a large absorption coefficient in order to realize the large, required changes in n′. […] At the same time, the agent should have minimal absorption at the wavelength for imaging, thus calling for a single narrow absorption peak without any additional absorption at longer wavelengths. In addition to these purely optical requirements, the agents also need to display a high solubility and diffusivity in water as well as excellent biocompatibility to facilitate in vivo application.

[8] = when used as a clearing agent, reported; cited from earlier work
[9] = wavelength 600 nm, aqueous solution

Structure (SMILES): Cc1cc(=O)n(-c2ccccc2)n1C [Antipyrine, reference compound]
Molar n′ change β [1, 9]: 0.037 ± 0.003 M⁻¹

diffusion coefficient (chicken breast tissue [4]; in chicken breast tissue, clearing solution): 0.66×10^−6 cm^2 s^−1
β higher than that of molecules commonly used to raise the n′ of water [1]: 2-3 orders of magnitude
efficiency in raising the n′ of water relative to glycerol on a per molar basis ([1]; at 600 nm): 11 ×
n′ of solution reachable ([1]; at a soluble concentration, ellipsometry): up to 1.49
Molar n′ change β ([1]; wavelength 500 nm, aqueous solution): 0.198 ± 0.005 M⁻¹
Molar n′ change β [1, 9]: 0.143 ± 0.004 M⁻¹
Molar n′ change β ([1]; wavelength 700 nm, aqueous solution): 0.128 ± 0.004 M⁻¹
Molar n′ change β ([1]; wavelength 800 nm, aqueous solution): 0.130 ± 0.008 M⁻¹
absorption at wavelengths above 600 nm [6]: minimally absorbing
absorption at wavelengths above 600 nm ([6]; listed as tartrazine): do not absorb
peak absorption wavelength ([6]; dissolved in water): 428 nm
β among candidates while maintaining low α ([7]; visible spectrum of 500-700 nm, 21 candidates): highest
Structure (SMILES): O=C([O-])c1nn(-c2ccc(S(=O)(=O)[O-])cc2)c(O)c1/N=N/c1ccc(S(=O)(=O)[O-])cc1.[Na+].[Na+].[Na+] [Dye-4, Trisodium 5-hydroxy-1-(4-sulfonato-phenyl)-4-[(E)-(4-sulfonato-phenyl)diazenyl]-1H-pyrazole-3-carboxylate]
resolvable spatial frequency through 1-mm scattering phantom [2]: up to 228.1 lp mm^−1
normalized attenuation coefficient relative to original tissue (chicken breast tissue [3]): approximately 40%
laser speckle image through intact scalp after topical application (mouse scalp): clearly reveals vascular structures representative of cerebral vessels
characteristic periodicity (sarcomere length) identified through the skin window (mouse hindlimb skin): 2.60±0.28 μm
depth at which sarcomere structures are identified through the skin (mouse hindlimb skin; 1040 nm): > 200 μm
time constant τ of normalized transmittance (chicken breast tissue [4]; 0.62 M solution, tissue thickness 1.82 mm): 85.0 ± 1.2 min
time until transmission changes saturate (chicken breast tissue [4]; 2-mm-thick chicken breast, 0.62 M solution): 2 to 3 h
dose with no adverse effects or systemic toxicity [5]: up to 2 g per kg of body weight

potential for clearing from β/α spectrum ([7]; longer wavelengths / NIR spectrum): greatest potential
Structure (SMILES): CC1(C)C(/C=C/C2=C(Cl)C(=C/C=C3\N(CCCCS(=O)(=O)[O-])c4ccccc4C3(C)C)/CCC2)=[N+](CCCCS(=O)(=O)[O-])c2ccccc21.[Na+] [Dye-21, Sodium 4-[2-[2-[2-chloro-3-[2-[3,3-dimethyl-1-(4-sulfonato-butyl)indol-1-ium-2-yl]vinyl]cyclohex-2-en-1-ylidene]ethylidene]-3,3-dimethyl-indolin-1-yl]butane-1-sulfonate]

concentration needed to raise the baseline n′ of water to match that of lipids [1]: 11.6 M
Molar n′ change β ([1]; in the visible spectrum): 0.0129 M⁻¹
Molar n′ change β ([1]; wavelength 589.6 nm): 0.0129 M⁻¹
molar absorption coefficient α [6]: 0.012 M⁻¹
Structure (SMILES): OCC(O)CO [Glycerol, reference compound]

Molar n′ change β ([1]; wavelength 589.6 nm): 0.0084 M⁻¹
Structure (SMILES): CC(O)CO (stereo not shown) [Propylene glycol, reference compound]
diffusion coefficient [8]: 0.021×10^−6 cm^2 s^−1

Structure (SMILES): [Cl-].[Na+] [Sodium chloride, reference compound]
Molar n′ change β ([1]; wavelength 589 nm): 0.00094 M⁻¹

Molar n′ change β ([1]; wavelength 589.6 nm): 0.0462 M⁻¹
Structure (SMILES): OC[C@H]1O[C@@](CO)(O[C@H]2O[C@H](CO)[C@@H](O)[C@H](O)[C@H]2O)[C@@H](O)[C@@H]1O [Sucrose, reference compound]
required immersion time to achieve the same n′ increase (chicken breast tissue [4]; chicken breast): 24 h

Source: patent publication US20250367330A1, “OPTICAL CLEARING ENABLED BY THE KRAMERS-KRONIG RELATION” (The Board of Trustees of the Leland Stanford Junior …, priority 2021, published 2025)
